Reference: patent publication US20220257597A1, “Methods of Administering Elagolix” (AbbVie Inc., priority 2021, published 2022)

Assays:
[1] = test system: CYP3A; experiment: Substrate of / metabolism by CYP3A; type: in vitro ADME
[2] = Drug interaction studies: change in pharmacokinetics of elagolix in the presence of co-administered drugs; type: in vivo, human; details: elagolix 300 mg twice daily; rosuvastatin 20 mg once daily, sertraline 25 mg once daily or fluconazole 200 mg single dose
[3] = Drug interaction studies: change in pharmacokinetics of co-administered drug in the presence of elagolix; type: in vivo, human; details: for changes in exposures when co-administered with elagolix, in words: elagolix 300 mg twice daily
Procedure: Drug interaction studies were performed with elagolix and other drugs likely to be co-administered and with drugs commonly used as probes for pharmacokinetic interactions. Tables 8 and 9 summarize the pharmacokinetic effects when elagolix was co-administered with these drugs.

[4] = Drug interactions: effects of ORIAHNN on other drugs; details: co-administration of ORIAHNN
[5] = Drug interactions: effects of ORILISSA on other drugs; details: co-administration of ORILISSA
[6] = rosuvastatin 20 mg once daily, elagolix 300 mg twice daily x 7 days, N 10

SMILES	metabolism by CYP3A [1]	changes in elagolix exposures when co-administered, in words [2]	changes in exposures when co-administered with elagolix, in words [3]	other results
C#C[C@]1(OC(C)=O)CC[C@H]2[C@@H]3CCC4=CC(=O)CC[C@@H]4[C@H]3CC[C@@]21C [norethindrone acetate]	metabolized partially by CYP3A			
CN[C@H]1CC[C@@H](c2ccc(Cl)c(Cl)c2)c2ccccc21 [sertraline]		No clinically significant changes	No clinically significant changes	
OC(Cn1cncn1)(Cn1cncn1)c1ccc(F)cc1F [fluconazole]		No clinically significant changes	No clinically significant changes	
C[C@]12CC[C@@H]3c4ccc(O)cc4CC[C@H]3[C@@H]1CC[C@@H]2O [estradiol]	metabolized partially by CYP3A			
CC(C)c1nc(N(C)S(C)(=O)=O)nc(-c2ccc(F)cc2)c1/C=C/[C@@H](O)C[C@@H](O)CC(=O)O [rosuvastatin]		No clinically significant changes		Ratio (90% CI) AUC, co-administration with elagolix vs medication alone [3, 6]: 0.60; Ratio (90% CI) Cmax, co-administration with elagolix vs medication alone [3, 6]: 0.99; Effect on Plasma Exposure of Concomitant Drug (direction of change in AUC) [4]: ↓ rosuvastatin; Effect on Plasma Exposure of Concomitant Drug (direction of change in AUC) [5]: ↓ rosuvastatin
